Several values for one entry are separate records, joined by “and”; a condition that tells them apart may be missing. Equal entries are not always repeated.
Experiments:
[1] = UV absorption (UV λmax and εmax) in solution; assay type: physicochemical
From the text: There follow some examples where the UV λmax and εmax have been measured according to general methods known for the person skilled in the art by way of non-restrictive illustration of the present invention.

UV λmax ([1]; DMSO)	εmax ([1]; DMSO)	SMILES	other results
330 nm	150000 M⁻¹ cm⁻¹	CC12CCC(C1)C(C)(C)C2OC(=O)c1ccc(NC2=NC3=NC(Nc4ccc(C(=O)OC5C6(C)CCC(C6)C5(C)C)cc4)=NC4=NC(Nc5ccc(C(=O)OC6C7(C)CCC(C7)C6(C)C)cc5)=NC(=N2)N34)cc1 (stereo not drawn) [Example 45]	
326 nm	87000 M⁻¹ cm⁻¹	CCCCCCCCCCCCOC(=O)c1ccc(NC2=NC3=NC(Nc4ccc(C(=O)OCCCCCCCCCCCC)cc4)=NC4=NC(Nc5ccc(C(=O)OCCCCCCCCCCCC)cc5)=NC(=N2)N34)cc1 [Example 44, 2,5,8-tris-(4-(dodecyloxycarbonyl)phenylamino)-1,3,4,6,7,9,9b-heptaazaphenalene]	
331 nm	46000 M⁻¹ cm⁻¹	c1cc2cc(NC3=NC4=NC(Nc5ccc6[nH]ccc6c5)=NC5=NC(Nc6ccc7[nH]ccc7c6)=NC(=N3)N45)ccc2[nH]1 [Example 46, 2,5,8-tris-(1H-indol-5-ylamino)-1,3,4,6,7,9,9b-heptaazaphenalene]	
316 nm	167000 M⁻¹ cm⁻¹	C(=C\c1cccc(NC2=NC3=NC(Nc4cccc(/C=C/c5ccccc5)c4)=NC4=NC(Nc5cccc(/C=C/c6ccccc6)c5)=NC(=N2)N34)c1)/c1ccccc1 [Example 37, 2,5,8-tris-((3-(E)-styrylphenyl)amino)-1,3,4,6,7,9,9b-heptaazaphenalene]	
324 nm	117000 M⁻¹ cm⁻¹	CCCCCCCCCCCCCCCCCCOC(=O)c1ccc(NC2=NC3=NC(Nc4ccc(C(=O)OCCCCCCCCCCCCCCCCCC)cc4)=NC4=NC(Nc5ccc(C(=O)OCCCCCCCCCCCCCCCCCC)cc5)=NC(=N2)N34)cc1 [Example 40, 2,5,8-tris-(4-(octadecyloxycarbonyl)phenylamino)-1,3,4,6,7,9,9b-heptaazaphenalene]	
288 nm and 354 nm	66000 M⁻¹ cm⁻¹ and 113000 M⁻¹ cm⁻¹	CCCCC(CC)COC(=O)/C=C/c1ccc(NC2=NC3=NC(Nc4ccc(/C=C/C(=O)OCC(CC)CCCC)cc4)=NC4=NC(Nc5cccc(/C=C/C(=O)OCC(CC)CCCC)c5)=NC(=N2)N34)cc1 (stereo not drawn) [Example 34, 2-(3-((E)-3-(2-ethylhexyloxy)-3-oxoprop-1-enyl)phenylamino)-5,8-bis-(4-((E) -3-(2-ethylhexyloxy)-3-oxoprop-1-enyl)phenylamino)-1,3,4,6,7,9,9b-heptaazaphenalene]	
324 nm	121000 M⁻¹ cm⁻¹	CCCCCCCCC(CCCCCC)COC(=O)c1ccc(NC2=NC3=NC(Nc4ccc(C(=O)OCC(CCCCCC)CCCCCCCC)cc4)=NC4=NC(Nc5ccc(C(=O)OCC(CCCCCC)CCCCCCCC)cc5)=NC(=N2)N34)cc1 (stereo not drawn) [Example 38, 2,5,8-tris-(4-(^2-hexyldecyloxycarbonyl)phenylamino)-1,3,4,6,7,9,9b-heptaazaphenalene]	
270 nm	44000 M⁻¹ cm⁻¹	Cc1cc(N)c(NC2=NC3=NC(Nc4cc(C)c(C)cc4N)=NC4=NC(Nc5cc(C)c(C)cc5N)=NC(=N2)N34)cc1C [Example 48, 2,5,8-tris-(2-amino-4,5-dimethylphenylamino)-1,3,4,6,7,9,9b-heptaazaphenalene]	

More lines, now with the values behind:

SMILES	UV λmax ([1]; DMSO)	εmax ([1]; DMSO)	other results
c1ccn2cc(-c3ccc(NC4=NC5=NC(Nc6ccc(-c7cn8ccccc8n7)cc6)=NC6=NC(Nc7ccc(-c8cn9ccccc9n8)cc7)=NC(=N4)N56)cc3)nc2c1 [Example 3, 2,5,8-tris-(4-(imidazo[1,2-a]pyridin-2-yl)-phenylamino)-1,3,4,6,7,9,9b-heptaazaphenalene]	353 nm	75000 M⁻¹ cm⁻¹	
COC(=O)c1ccc(-c2ccc(NC3=NC4=NC(Nc5ccc(-c6ccc(C(=O)OC)cc6)cc5)=NC5=NC(Nc6ccc(-c7ccc(C(=O)OC)cc7)cc6)=NC(=N3)N45)cc2)cc1 [Example 23, 2,5,8-tris-(methoxycarbonyl-4′-biphenyl-4-ylamino)-1,3,4,6,7,9,9b-heptaazaphenalene]	346 nm	99000 M⁻¹ cm⁻¹	
c1ccc2[nH]c(-c3ccc(NC4=NC5=NC(Nc6ccc(-c7nc8ccccc8[nH]7)cc6)=NC6=NC(Nc7ccc(-c8nc9ccccc9[nH]8)cc7)=NC(=N4)N56)cc3)nc2c1 [Example 8, 2,5,8-tris-(4-(1H-benzo[d]imidazol-2-yl)phenylamino)-1,3,4,6,7,9,9b-heptaazaphenalene]			melting point: > 275 °C
Cc1cc2c(n1-c1ccc(NC3=NC4=NC(Nc5ccc(-n6c(C)cc7c6CC(C)(C)CC7=O)cc5)=NC5=NC(Nc6ccc(-n7c(C)cc8c7CC(C)(C)CC8=O)cc6)=NC(=N3)N45)cc1)CC(C)(C)CC2=O [Example 4, 2,5,8-tris-(4-(4,5,6,7-tetrahydro-2,6,6-trimethyl-4-oxoindol-1-yl)phenylamine)-1,3,4,6,7,9,9b-heptaazaphenalene]			UV λmax ([1]; EtOH): 314 nm; εmax ([1]; EtOH): 103000 M⁻¹ cm⁻¹
C(=C\c1ccc(NC2=NC3=NC(Nc4ccc(/C=C/c5ccccc5)cc4)=NC4=NC(Nc5ccc(/C=C/c6ccccc6)cc5)=NC(=N2)N34)cc1)/c1ccccc1 [Example 28, 2,5,8-tris-((4-(E)-styrylphenyl)amino)-1,3,4,6,7,9,9b-heptaazaphenalene]	367 nm	163000 M⁻¹ cm⁻¹	melting point: > 270 °C
CC1CC(OC(=O)c2ccc(NC3=NC4=NC(Nc5ccc(C(=O)OC6CC(C)CC(C)(C)C6)cc5)=NC5=NC(Nc6ccc(C(=O)OC7CC(C)CC(C)(C)C7)cc6)=NC(=N3)N45)cc2)CC(C)(C)C1 (stereo not drawn) [Example 31, 2,5,8-tris-(4-((3,3,5-trimethylcyclohexyloxy)carbonyl)phenylamino)-1,3,4,6,7,9,9b-heptaazaphenalene]	329 nm	143000 M⁻¹ cm⁻¹	melting point: > 275 °C
c1ccc(Nc2ccc(NC3=NC4=NC(Nc5ccc(Nc6ccccc6)cc5)=NC5=NC(Nc6ccc(Nc7ccccc7)cc6)=NC(=N3)N45)cc2)cc1 [Example 27, 2,5,8-tris-(4-(phenylamino)phenylamino)-1,3,4,6,7,9,9b-heptaazaphenalene]	360 nm	60000 M⁻¹ cm⁻¹	
CCCCC(CC)COC(=O)c1ccc(NC2=NC3=NC(Nc4ccc(C(=O)OCC(CC)CCCC)cc4)=NC4=NC(Nc5ccc(C(=O)OCC(CC)CCCC)cc5)=NC(=N2)N34)cc1 (stereo not drawn) [Example 2, 2,5,8-tris-(4-(2-ethylhexyloxycarbonyl)phenylamino)-1,3,4,6,7,9,9b-heptaazaphenalene]			UV λmax ([1]; CHCl3): 326 nm; εmax ([1]; CHCl3): 95000 M⁻¹ cm⁻¹; melting point: 183 to 186 °C
CCCCOC(=O)c1ccc(NC2=NC3=NC(Nc4ccc(C(=O)OCCCC)cc4)=NC4=NC(Nc5ccc(C(=O)OCCCC)cc5)=NC(=N2)N34)cc1 [Example 1, 2,5,8-tris-(4-(butoxycarbonyl)phenylamino)-1,3,4,6,7,9,9b-heptaazaphenalene]			UV λmax ([1]; CHCl3—EtOH): 325 nm; εmax ([1]; CHCl3—EtOH): 100000 M⁻¹ cm⁻¹; melting point: 289 to 290 °C
CCCCC(CC)COC(=O)/C=C/c1cccc(NC2=NC3=NC(Nc4cccc(/C=C/C(=O)OCC(CC)CCCC)c4)=NC4=NC(Nc5cccc(/C=C/C(=O)OCC(CC)CCCC)c5)=NC(=N2)N34)c1 (stereo not drawn) [Example 33, 2,5,8-tris-(3-((E)-3-(2-ethylhexyloxy)-3-oxoprop-1-enyl)phenylamino)-1,3,4,6,7,9,9b-heptaazafenaleno]	290 nm	126000 M⁻¹ cm⁻¹	melting point: 206 to 210 °C
CCCCOC(=O)c1ccc(NC2=NC3=NC(Nc4ccc(C(=O)OCCCC)cc4)=NC4=NC(c5cn(C)c6ccccc56)=NC(=N2)N34)cc1 [Example 18]	337 nm	65000 M⁻¹ cm⁻¹	
c1ccc(-c2ccc(OC3=NC4=NC(Oc5ccc(-c6ccccc6)cc5)=NC5=NC(Oc6ccc(-c7ccccc7)cc6)=NC(=N3)N45)cc2)cc1 [Example 19, 2,5,8-tris-(biphenyl-4-yloxy)-1,3,4,6,7,9,9b-heptaazaphenalene]	262 nm	81000 M⁻¹ cm⁻¹	
COc1ccc(NC2=NC3=NC(Nc4ccc(OC)cc4)=NC4=NC(Nc5ccc(OC)cc5)=NC(=N2)N34)cc1 [Example 21, 2,5,8-tris-(4-methoxyphenylamino)-1,3,4,6,7,9,9b-heptaazaphenalene]	324 nm	59000 M⁻¹ cm⁻¹	
c1ccc(-c2ccc(NC3=NC4=NC(Nc5ccc(-c6ccccc6)cc5)=NC5=NC(Nc6ccc(-c7ccccc7)cc6)=NC(=N3)N45)cc2)cc1 [Example 6, 2,5,8-tris-(biphenyl-4-ylamino)-1,3,4,6,7,9,9b-heptaazaphenalene]	333 nm	103000 M⁻¹ cm⁻¹	
Cc1ccc(C2=NC3=NC(c4ccc(C)cc4)=NC4=NC(c5ccc(C)cc5)=NC(=N2)N34)cc1 [Example 25, 2,5,8-tris-(4-methylphenyl)-1,3,4,6,7,9,9b-heptaazaphenalene]	327 nm	86000 M⁻¹ cm⁻¹	
c1ccc(-c2ccc(NC3=NC4=NC(Nc5ccc(-c6ccccc6)cc5)=NC5=NC(Nc6ccc(-c7ccccc7)cc6)=NC(=N3)N45)cc2)cc1			melting point: > 310 °C
c1ccc2[nH]c(-c3ccc(NC4=NC5=NC(Nc6ccc(-c7nc8ccccc8[nH]7)cc6)=NC6=NC(Nc7ccc(-c8nc9ccccc9[nH]8)cc7)=NC(=N4)N56)cc3)nc2c1 [Example 7, 2,5,8-tris-(4-(1H-benzo[d]imidazol-2-yl)phenylamino)-1,3,4,6,7,9,9b-heptaazaphenalene]			UV λmax ([1]; CHCl3-MeOH): 358 nm; εmax ([1]; CHCl3-MeOH): 107000 M⁻¹ cm⁻¹
CCCCC(CC)CNC1=NC2=NC(NCC(CC)CCCC)=NC3=NC(NCC(CC)CCCC)=NC(=N1)N23 (stereo not drawn) [Example 29, 2,5,8-tris-(2-ethylhexylamino)-1,3,4,6,7,9,9b-heptaazaphenalene]	265 nm	92000 M⁻¹ cm⁻¹	
O=[N+]([O-])c1cccc(NC2=NC3=NC(Nc4cccc([N+](=O)[O-])c4)=NC4=NC(Nc5cccc([N+](=O)[O-])c5)=NC(=N2)N34)c1 [Example 35, 2,5,8-tris-(3-nitrophenylamino)-1,3,4,6,7,9,9b-heptaazaphenalene]	308 nm	113000 M⁻¹ cm⁻¹	

From patent publication US20080193398A1, “Derivatives of Heptaazaphenalene, Methods for Obtaining Them, and Their Use as Protecting Agents Against Uv Radiation” (ISDIN, S.A., priority 2005, published 2008)
